Reference: ChEMBL document CHEMBL5244235, “Diarylpentanoids with antitumor activity: A critical review of structure-activity relationship studies” (Eur J Med Chem, 2020)
Values belong to the compound of their own block, whether it stands above or below them.

Tests used:
[1] = system: A549; experiment: Antiproliferative activity against human A549 cells assessed as cell viability by WST-1 assay; format: functional, cell-based
[2] = system: MV4-11; experiment: Antiproliferative activity against human MV4-11 cells assessed as cell viability by WST-1 assay; format: functional, cell-based
[3] = system: MG-63; experiment: Antiproliferative activity against human MG-63 cells assessed as cell viability by WST-1 assay; format: functional, cell-based
[4] = system: NCI-H23; experiment: Antiproliferative activity against human NCI-H23 cells assessed as cell viability by WST-1 assay; format: functional, cell-based
[5] = system: MDA-MB-231; experiment: Antiproliferative activity against human MDA-MB-231 cells assessed as cell viability by WST-1 assay; format: functional, cell-based
[6] = system: MDA-MB-468; experiment: Antiproliferative activity against human MDA-MB-468 cells assessed as cell viability by WST-1 assay; format: functional, cell-based
[7] = Antiproliferative activity against human MRC9 cells assessed as cell growth inhibition measured after 72 hrs by MTT assay; format: functional, cell-based; settings: MRC9, 72 h
[8] = system: HeLa; experiment: Antiproliferative activity against human HeLa cells assessed as cell growth inhibition measured after 72 hrs by MTT assay; format: functional, cell-based; settings: Homo sapiens, HeLa, 72 h
[9] = system: Ca-Ski; experiment: Antiproliferative activity against human Ca-Ski cells assessed as cell growth inhibition measured after 72 hrs by MTT assay; format: functional, cell-based
[10] = system: HCT-116; experiment: Antiproliferative activity against human HCT116 cells assessed as cell growth inhibition measured after 96 hrs; format: functional, cell-based; settings: HCT-116, 96 h
[11] = system: AGS; experiment: Antiproliferative activity against human AGS cells assessed as cell growth inhibition measured upto 72 hrs by MTT assay; format: functional, cell-based
[12] = system: KYSE-30; experiment: Antiproliferative activity against human KYSE-30 cells assessed as cell growth inhibition measured upto 72 hrs by MTT assay; format: functional, cell-based; settings: KYSE-30, 72 h
[13] = Cytotoxicity activity against mouse SVR cells assessed as cell growth inhibition at 4 ug/ml relative to control; format: toxicity, cell-based; settings: at 4 µg/mL
[14] = Cytotoxicity activity against mouse SVR cells assessed as cell growth inhibition at 6 ug/ml relative to control; format: toxicity, cell-based; settings: at 6 µg/mL
[15] = system: HeLa; experiment: Antiproliferative activity against human HeLa cells assessed as cell growth inhibition measured after 24 hrs by MTT assay; format: functional, cell-based
[16] = system: THP-1; experiment: Antiproliferative activity against human THP-1 cells assessed as cell growth inhibition measured after 24 hrs by MTT assay; format: functional, cell-based; settings: THP-1, 24 h
[17] = system: HepG2; experiment: Antiproliferative activity against human HepG2 cells assessed as cell growth inhibition measured after 24 hrs by MTT assay; format: functional, cell-based; settings: HepG2, 24 h
[18] = system: K562; experiment: Antiproliferative activity against human K562 cells assessed as cell growth inhibition measured after 24 hrs by MTT assay; format: functional, cell-based; settings: K562, 24 h
[19] = system: HUVEC; experiment: Anti-angiogenesis activity in HUVEC cells; format: functional, cell-based; settings: Homo sapiens
[20] = system: GCIY; experiment: Antiproliferative activity against human GCIY cells assessed as cell growth inhibition measured after 72 hrs; format: functional, cell-based
[21] = Antiproliferative activity against human SH-10-TC cells assessed as cell growth inhibition measured after 72 hrs; format: functional, cell-based
[22] = system: HCT-116; experiment: Antiproliferative activity against human HCT-116 cells assessed as cell growth inhibition measured after 72 hrs; format: functional, cell-based; settings: HCT-116, 72 h
[23] = system: DLD-1; experiment: Antiproliferative activity against human DLD-1 cells assessed as cell growth inhibition measured after 72 hrs; format: functional, cell-based; settings: DLD-1, 72 h
[24] = system: A549; experiment: Antiproliferative activity against human A549 cells assessed as cell growth inhibition measured after 72 hrs; format: functional, cell-based; settings: A549, 72 h
[25] = system: ACHN; experiment: Antiproliferative activity against human ACHN cells assessed as cell growth inhibition measured after 72 hrs; format: functional, cell-based
[26] = system: Huh-7; experiment: Antiproliferative activity against human Huh-7 cells assessed as cell growth inhibition measured after 72 hrs; format: functional, cell-based; settings: Huh-7, 72 h
[27] = Antiproliferative activity against human OVK18 cells assessed as cell growth inhibition measured after 72 hrs; format: functional, cell-based; settings: OVK18, 72 h
[28] = system: MCF7; experiment: Antiproliferative activity against human MCF7 cells assessed as cell growth inhibition measured after 72 hrs; format: functional, cell-based; settings: MCF7, 72 h
[29] = system: A-431; experiment: Antiproliferative activity against human A-431 cells assessed as cell growth inhibition measured after 72 hrs; format: functional, cell-based; settings: A-431, 72 h
[30] = system: HuCCT-1; experiment: Antiproliferative activity against human HuCCT-1 cells assessed as cell growth inhibition measured after 72 hrs; format: functional, cell-based; settings: HuCCT-1, 72 h
[31] = system: 8505C; experiment: Antiproliferative activity against human 8505C cells assessed as cell growth inhibition measured after 72 hrs; format: functional, cell-based
[32] = system: G-361; experiment: Antiproliferative activity against human G-361 cells assessed as cell growth inhibition measured after 72 hrs; format: functional, cell-based; settings: G-361, 72 h
[33] = system: PC-3; experiment: Antiproliferative activity against human PC-3 cells assessed as cell growth inhibition measured after 72 hrs; format: functional, cell-based; settings: PC-3, 72 h
[34] = Antiproliferative activity against human PK-1 cells assessed as cell growth inhibition measured after 72 hrs; format: functional, cell-based; settings: PK-1, 72 h
[35] = system: MDA-MB-231; experiment: Growth inhibition of human MDA-MB-231 cells measured after 72 hrs by microplate reader analysis; format: functional
[36] = system: RPMI-7951; experiment: Growth inhibition of human RPMI-7951 cells measured after 72 hrs by microplate reader analysis; format: functional, cell-based
[37] = system: SVR; experiment: Anti-angiogenesis activity in mouse SVR cells assessed as cell growth inhibition; format: functional, cell-based
[38] = Anti-angiogenesis activity in […] MS-1 cells assessed as cell growth inhibition; format: functional, cell-based
[39] = system: HUVEC; experiment: Anti-angiogenesis activity in HUVEC cells assessed as cell growth inhibition; format: functional, cell-based; settings: Homo sapiens
[40] = Cytotoxicity against HUVEC cells assessed as cell growth inhibition by anti-angiogenisis screening assay; format: toxicity, cell-based; settings: human
[41] = Cytotoxicity against mouse MS-1 cells assessed as cell growth inhibition by anti-angiogenisis screening assay; format: toxicity, cell-based
[42] = Cytotoxicity against mouse SVR cells assessed as cell growth inhibition by anti-angiogenisis screening assay; format: toxicity, cell-based

Compound: C#CCOc1ccc(/C=C2\CCC/C(=C\c3ccc(OCC#C)cc3)C2=O)cc1
- IC50 [11]: 0.72 µM
- IC50 [12]: 3.4 µM

Compound: O=C(/C=C/c1ccccc1)/C=C/c1ccccc1
- inhibition at 4 ug/ml [13]: 87.1%
- inhibition at 6 ug/ml [14]: 90.4%

Compound: O=C1/C(=C/c2cccc(/N=C/c3ccc(O)cc3O)c2)CCC/C1=C\c1cccc(/N=C/c2ccc(O)cc2O)c1
- IC50 [15]: < 5 µM
- IC50 [16]: < 5 µM
- IC50 [17]: < 5 µM
- IC50 [18]: < 5 µM

Compound: COCOc1cc(/C=C/C(=O)CC(SCC(=O)OC)c2cc(OCOC)cc(OCOC)c2)cc(OCOC)c1 (stereo not given)
- IC50 [19]: 0.4 µM

Compound: O=C1/C(=C/c2cccc(/N=C/c3cccc(O)c3O)c2)CCC/C1=C\c1cccc(/N=C/c2cccc(O)c2O)c1
- IC50 [15]: < 5 µM
- IC50 [16]: < 5 µM
- IC50 [17]: < 5 µM
- IC50 [18]: < 5 µM

Compound: O=C(/C=C/c1c(Cl)cccc1Cl)/C=C/c1c(Cl)cccc1Cl
- inhibition at 4 ug/ml [13]: 87.1%
- inhibition at 6 ug/ml [14]: 90.4%

Compound: O=C1/C(=C/c2ccc(Cl)cc2Cl)CNC/C1=C\c1ccc(Cl)cc1Cl
- IC50 [1]: 0.39 µM
- IC50 [2]: 0.39 µM
- IC50 [3]: 0.39 µM
- IC50 [4]: 0.39 µM
- IC50 [5]: 0.39 µM
- IC50 [6]: 0.39 µM

Compound: O=C(/C=C/c1cccc(O)c1)/C=C/c1cccc(O)c1
- GI50 [35]: 1 µM
- GI50 ([36]; RPMI-7951, time 72 hrs): 2.3 µM
- GI50 [40]: 3.2 µM
- GI50 [41]: 3.2 µM
- GI50 [42]: 3.2 µM

Continued, in another order:

- IC50 [1]: 0.39 µM
- IC50 [2]: 0.39 µM
- IC50 [4]: 0.39 µM
- IC50 [5]: 0.39 µM
- IC50 [6]: 0.39 µM
Compound: COc1cc(/C=C2\CN(C(C)=O)C/C(=C\c3cc(OC)c(OC)c(OC)c3)C2=O)cc(OC)c1OC
- IC50 [3]: 0.39 µM

- EC50 [8]: 8.3 µM
Compound: O=C1/C(=C/c2cccc(F)c2)CCC/C1=C\c1cccc(F)c1
- EC50 [7]: 16.4 µM
- EC50 [9]: 6 µM

- IC50 [10]: 0.25 µM
Compound: COc1cc(/C=C/C(=O)/C=C/c2cc(OC)c(OC)c(OC)c2)cc(OC)c1OC

- IC50 [22]: 1 µM
- IC50 [23]: 1 µM
- IC50 [24]: 1 µM
- IC50 [25]: 1 µM
- IC50 [26]: 1 µM
- IC50 [28]: 1 µM
- IC50 [29]: 1 µM
- IC50 [33]: 1 µM
Compound: COc1cc(/C=C/C(=O)/C=C/c2cc(OC)c(OC)c(OC)c2)cc(OC)c1O
- IC50 [20]: 1 µM
- IC50 [21]: 1 µM
- IC50 [27]: 1 µM
- IC50 [30]: 1 µM
- IC50 [31]: 1 µM
- IC50 [32]: 1 µM
- IC50 [34]: 1 µM
- IC50 [19]: 0.4 µM

- IC50 [22]: 1 µM
- IC50 [23]: 1 µM
- IC50 [24]: 1 µM
- IC50 [25]: 1 µM
- IC50 [26]: 1 µM
- IC50 [28]: 1 µM
- IC50 [29]: 1 µM
- IC50 [33]: 1 µM
Compound: CCOC(C)Oc1cccc(/C=C/C(=O)/C=C/c2cc(OC)c(OC)c(OC)c2)c1 (stereo not given)
- IC50 [20]: 1 µM
- IC50 [21]: 1 µM
- IC50 [27]: 1 µM
- IC50 [30]: 1 µM
- IC50 [31]: 1 µM
- IC50 [32]: 1 µM
- IC50 [34]: 1 µM

- IC50 [1]: 0.39 µM
- IC50 [2]: 0.39 µM
- IC50 [4]: 0.39 µM
- IC50 [5]: 0.39 µM
- IC50 [6]: 0.39 µM
Compound: COc1cccc(/C=C2\CNC/C(=C\c3cccc(OC)c3OC)C2=O)c1OC
- IC50 [3]: 0.39 µM

- IC50 [10]: 1.5 µM
Compound: COc1ccc(/C=C/C(=O)/C=C/c2ccc(OC)c(OC)c2)cc1OC

- GI50 [35]: 0.9 µM
Compound: CN1C/C(=C\c2ccccc2O)C(=O)/C(=C/c2ccccc2O)C1
- IC50 ([36]; RPMI-7951, 72 h): 0.9 µM
- IC50 [37]: 1.1 µM
- IC50 [38]: 1.1 µM
- IC50 [39]: 1.1 µM

- IC50 [1]: 0.39 µM
- IC50 [2]: 0.39 µM
- IC50 [4]: 0.39 µM
- IC50 [5]: 0.39 µM
- IC50 [6]: 0.39 µM
Compound: COc1cc(/C=C2\CN(C)C/C(=C\c3cc(OC)c(OC)c(OC)c3)C2=O)cc(OC)c1OC
- IC50 [3]: 0.39 µM
